Experiment: xn = mol fraction of the nth substance listed
Conditions: 318.15 K, Liquid; for mass density: Siemens Coriolis flowmeter; for viscosity: Capillary tube (Ostwald / Ubbelohde) method

CCCCCCCCCC(=O)OC [methyl decanoate] + CCCCCCC
Conditions	mass density, 3000 kPa [kg/m3]	mass density, 6000 kPa [kg/m3]	mass density, 9000 kPa [kg/m3]	mass density, 12000 kPa [kg/m3]	mass density, 15000 kPa [kg/m3]	viscosity, 6000 kPa [mPa·s]	viscosity, 9000 kPa [mPa·s]	viscosity, 12000 kPa [mPa·s]	viscosity, 15000 kPa [mPa·s]
x1 = 0.101	692	696	699	702	705	0.371	0.386	0.402	0.418
x1 = 0.202	717	720	723	726	729	0.414	0.433	0.452	0.472
x1 = 0.299	739	742	745	748	751	0.465	0.489	0.512	0.536
x1 = 0.403	760	763	765	768	771	0.541	0.569	0.596	0.624
x1 = 0.501	778	781	784	787	789	0.629	0.661	0.692	0.724
x1 = 0.601	796	799	801	804	806	0.74	0.776	0.812	0.847
x1 = 0.698	812	815	817	820	822	0.88	0.919	0.959	0.998
x1 = 0.799	827	830	832	834	837	1.039	1.083	1.126	1.17
x1 = 0.902	841	843	846	848	850	1.199	1.247	1.295	1.343
x1 = 1	854	856	859	861	863	1.462	1.491	1.534	1.578
